Results as given in US20160310619A1, “SCREENING METHODS FOR ACETYLCHOLINE RELATED BIOACTIVE MATERIALS USING INHERITED COLOR PREFERENCE OF FISH” (GENOMIC DESIGN BIOENGINEERING COMPANY, priority 2014, published 2016).

Assays:
[1] = test system: zebrafish; assay: Screening for acetylcholine neurotransmission-related materials by innate color preference (blue/yellow color maze); type: in vivo, zebrafish (Danio rerio); conditions: acetylcholinesterase inhibitors vs egg water; five days old fish; FIG. 9(A)-(C)
From the text: For this experiment, a straight line-shaped screening device (color maze) was used as a screening device, and blue and yellow that most differ in color preference were used. Further, five days old young fish born from the same male and female were used in the channels of the device and divided into a comparison group and an experimental group in this experiment. The number of entities used in the comparison group and the experimental group was 10 per channel. The final volume of egg water used in each channel was fitted into 4 mL. Considering the direction for illumination and time of transmission of drug to nerves, video-recording was performed for 30 minutes, and then, sleeves were changed. Then, video-recording was resumed for 30 minutes. The number of entities in each of the sections with different colors was counted every two minutes and was processed statistically. As statistics, the significance of the comparison group and the experimental group was identified through the T-test (SPSS, USA).
For acetylcholine (Sigma), tacrine (Sigma), galantamine (Sigma), and caffeine (Sigma) as reagents administered to the experimental group, concentrates including acetylcholine of 1000 mM, tacrine of 20 mM, and galantamine of 10 mM were prepared using third distilled water. 10 entities, five days after fertilization, were put in the channel of each color maze, and egg water of 4 mL was used. […]

[2] = test system: zebrafish; assay: Color preference of zebrafish in blue/yellow color maze after alcohol; type: in vivo, zebrafish (Danio rerio); conditions: zebrafish 25 days after birth; alcohol 0.5%, 1%, 2% in egg water vs 0% comparison group; FIG. 7
From the text: A method for detecting bioactive materials using the innate color preference instinct of fish based on the color recognition and color preference results according to the visual recognition of zebrafish was developed. In order to identify whether a method for screening a bioactive material according to the present invention may effectively detect candidate materials, alcohol was used as an example of the bioactive material to identify whether the color preference of zebrafish is changed between before applied to zebrafish and after applied to the zebrafish. This utilizes the common sense that humans' recognition ability is changed depending on the blood alcohol concentration.
A specific experimental method was as follows. A straight line-shaped screening device (color maze) with a combination of blue and yellow was prepared, and 40 zebrafish, 25 days after birth, were used. Every 10 of the fish were put in each straight-line groove, egg water of 5 ml was used, and then, video-recording was performed for 30 minutes using a video recorder. As predicted, many of the zebrafish moved to blue that is a preferred color of zebrafish. […] The number of zebrafish in each color section was counted through the video recorded over five times in total.

| Compound | change in color preference (number of young zebrafish in blue and yellow sections) [1] | ability of distinguishing colors (number of zebrafish in each color section) [2] |
| --- | --- | --- |
| Nc1c2c(nc3ccccc13)CCCC2 [tacrine, 1,2,3,4-tetrahydro-9-acridine amine] | moved to yellow that is their avoided color |  |
| CCO [alcohol] |  | as the alcohol concentration increases, the number of zebrafish that can distinguish colors decreases |
